# From patent publication US5294603A, “Pharmaceutical compositions containing didemnins” (The Board of Trustees of The University of Illinois, priority 1992, dated 1994)
# Entries after “also recorded” stand apart in the source; their conditions may differ. Numbered stars: 1 amine (or outer) side, 2 acyl side, 3 side chain; on linkers, the order of the positions; unused ones are H or OH. Bridge positions count the residues as written; N and C are the ends. Square brackets hold non-standard residues; d marks the D form. Peptide text beside a SMILES is read from it. * marks the point of attachment. X14 = CC[C@H](C)[C@@H](N[*:1])[C@@H](O)CC(=O)O[C@@H](C(C)C)[C@@H](O)[C@H](C)C(=O)[*:2]; X7 = CC[C@H](C)[C@@H](N[*:1])[C@@H](O)CC(=O)O[C@H](C(=NO)[C@H](C)C(=O)[*:2])C(C)C; X1 = CC[C@H](C)[C@@H](N[*:1])[C@@H](O)CC(=O)O[C@H](C(=O)[C@H](C)C(=O)[*:2])C(C)C; NMeY = CN[C@@H](Cc1ccc(O)cc1)C(=O)O; dNMeL = CN[C@H](CC(C)C)C(=O)O; Isobutyryl = CC(C)C(=O)*; Pyruvoyl = CC(=O)C(=O)*
# Columns and labels:
# VSV = type: cell-based, vesicular stomatitis virus
# [1] = earlier work of Gloer; cited from earlier work
# [2] = tested on: L1210 murine leukemia cells; details: Table 9
# HSV-1 = type: cell-based, Herpes simplex virus Type I
# Visna virus (VIV) = type: cell-based
# [3] = tested on: Nb2 cells, rat T-cell node lymphoma; test: Competitive binding with [3H]didemnin B to Nb2 cells; details: 3 h at 37° C.
# Method: The immunosuppressive assay was performed by measuring competitive binding of tested compounds with [^3 H]didemnin B to Nb2 cells, rat T-cell node lymphoma. See, Russell, D. H., et al., J. Immunology, 1987, 138, 276-284.
# ^a Competing didemnins incubated with approximately 25 ng of [^3
# [4] = tested on: BHK = Baby hamster kidney cells
# P388 murine lymphoma = test: In vivo antitumor activity, P388; parameters: species or system mice; details: for T/C (treated/control): significant >125%
# Method: (§1) Compound 106 was prepared semisynthetically for in vivo antitumor testing in mice.
# (§2) ^b Schedule 1-9 days i. p.
# ^d P388 murine lymphoma. Median survival of control mice, 10.0 days.
# B16 melanoma = test: In vivo antitumor activity, B16; parameters: species or system mice; details: for T/C (treated/control): significant >125%
# Method: as §1, §2
# ^e B16 melanoma. Median survival of control mice, 17.0 days.
# Lewis lung carcinoma = test: In vivo antitumor activity, Lewis lung; parameters: species or system mice
# Method: as §1, §2
# ^f Lewis lung carcinoma, median tumor volume of control mice 1372
structure (smiles),measurement,setting,value
"CC[C@H](C)[C@H]1NC(=O)[C@@H](NC(=O)[C@@H](CC(C)C)N(C)C(=O)[C@H]2CCCN2C(=O)C(C)=O)[C@@H](C)OC(=O)[C@H](Cc2ccc(OC)cc2)N(C)C(=O)[C@@H]2CCCN2C(=O)[C@H](CC(C)C)NC(=O)[C@@H](C)C(=O)[C@H](C(C)C)OC(=O)C[C@@H]1O [Pyruv-D-Pro-DA, Pyruv-D-Pro Didemnin A] (Pyruvoyl-[dP][dNMeL]T[X1]LP[NMeY](Me); ester 3-C)",VSV,VSV,+ ++
same,IC50,L1210 cells,6 ng/mL
same,cytotoxicity compared with DDB,L1210 cells,only partially active
"CC[C@H](C)[C@H]1NC(=O)[C@@H](NC(=O)[C@@H](CC(C)C)NC)[C@@H](C)OC(=O)[C@H](Cc2ccc(OC)cc2)N(C)C(=O)[C@@H]2CCCN2C(=O)[C@H](CC(C)C)NC(=O)[C@@H](C)[C@H](O)[C@H](C(C)C)OC(=O)C[C@@H]1O [[Dihydro(2S,3S,4S)Hip^2]didemnin A, reference compound] (H-[dNMeL]T[X14]LP[NMeY](Me); ester 2-C)",cytotoxicity compared with Compound 1,[1],weaker cytotoxicity than Compound 1
"CC[C@H](C)[C@H]1NC(=O)[C@@H](NC(=O)[C@@H](CC(C)C)NC)[C@@H](C)OC(=O)[C@H](Cc2ccc(OC)cc2)N(C)C(=O)[C@@H]2CCCN2C(=O)[C@H](CC(C)C)NC(=O)[C@@H](C)C(=NO)[C@H](C(C)C)OC(=O)C[C@@H]1O [[HydroxyiminoHip^2]-Didemnin A (65), [HydroxyiminoHip^2]didemnin A] (H-[dNMeL]T[X7]LP[NMeY](Me); ester 2-C)",CV-1,CV-1 monkey kidney cells,0
same,Cytotoxicity L1210 IC50,[2],20 ng/mL
CC[C@H](C)[C@H]1NC(=O)[C@@H](NC(=O)[C@@H](CC(C)C)N(C)C(=O)[C@@H]2CCCN2C(=O)C(C)C)[C@@H](C)OC(=O)[C@H](Cc2ccc(OC)cc2)N(C)C(=O)[C@@H]2CCCN2C(=O)[C@H](CC(C)C)NC(=O)[C@@H](C)C(=O)[C@H](C(C)C)OC(=O)C[C@@H]1O [[Isobutyryl^9]didemnin B] (Isobutyryl-P[dNMeL]T[X1]LP[NMeY](Me); ester 3-C),HSV-1,HSV-1,++ +
same,VIV Protection,Visna virus (VIV),-93
same,Inhibition of [3H]didemnin B binding (%),[3]; 0.001 μg/mL,2%
same,Inhibition of [3H]didemnin B binding (%),[3]; 0.01 μg/mL,4%
same,Inhibition of [3H]didemnin B binding (%),[3]; 0.1 μg/mL,59%
same,Inhibition of [3H]didemnin B binding (%),[3]; 1 μg/mL,75%
same,BHK,[4],"0, PT"
same,Cytotoxicity L1210 IC50,[2],0.2 ng/mL
"CC[C@H](C)[C@H]1NC(=O)[C@@H](NC(=O)[C@@H](CC(C)C)N(C)C(=O)[C@@H]2CCCN2C(=O)C(C)=O)[C@@H](C)OC(=O)[C@H](Cc2ccc(OC)cc2)N(C)C(=O)[C@@H]2CCCN2C(=O)[C@H](CC(C)C)NC(=O)[C@@H](C)C(=O)[C@H](C(C)C)OC(=O)C[C@@H]1O [[Pyruvyl^9]Didemnin B (106), Dehydrodidemnin B] (Pyruvoyl-P[dNMeL]T[X1]LP[NMeY](Me); ester 3-C)",antiviral activity against VSV,VSV,high order
same,HSV-1,HSV-1,+ +
same,antiviral activity against HSV-1,HSV-1,several times more active than DB; also recorded: high order
same,VIV Protection,Visna virus (VIV),-92
same,activity against VIV,Visna virus (VIV),completely inactive
same,Alive (day 23),"P388 murine lymphoma; P388, 80 μg/kg/day",0
same,Median Survival,"P388 murine lymphoma; P388, 80 μg/kg/day",19.5 days
same,Body wt. chenge.,"P388 murine lymphoma; P388, 80 μg/kg/day i. p. days 1-9",-1.4 g
same,T/C (treated/control),"P388 murine lymphoma; P388, 80 μg/kg/day",195%
same,Alive (day 23),"P388 murine lymphoma; P388, 160 μg/kg/day",0
same,Median Survival,"P388 murine lymphoma; P388, 160 μg/kg/day",21.0 days
same,Body wt. chenge.,"P388 murine lymphoma; P388, 160 μg/kg/day i. p. days 1-9",-3.2 g
same,T/C (treated/control),"P388 murine lymphoma; P388, 160 μg/kg/day",210%
same,Alive (day 23),"P388 murine lymphoma; P388, 320 μg/kg/day",0
same,Median Survival,"P388 murine lymphoma; P388, 320 μg/kg/day",6.0 days
same,Body wt. chenge.,"P388 murine lymphoma; P388, 320 μg/kg/day i. p. days 1-9",-3.3 g
same,T/C (treated/control),"P388 murine lymphoma; P388, 320 μg/kg/day",60%
same,Alive (day 24),"B16 melanoma; B16, 40 μg/kg/day",0
same,Median Survival,"B16 melanoma; B16, 40 μg/kg/day",30 days
same,Body wt. chenge.,"B16 melanoma; B16, 40 μg/kg/day i. p. days 1-9",0.1 g
same,T/C (treated/control),"B16 melanoma; B16, 40 μg/kg/day",178%
same,Alive (day 24),"B16 melanoma; B16, 80 μg/kg/day",0
same,Median Survival,"B16 melanoma; B16, 80 μg/kg/day",32 days
same,Body wt. chenge.,"B16 melanoma; B16, 80 μg/kg/day i. p. days 1-9",-0.5 g
same,T/C (treated/control),"B16 melanoma; B16, 80 μg/kg/day",188%
same,Alive (day 24),"B16 melanoma; B16, 160 μg/kg/day",0
same,Median Survival,"B16 melanoma; B16, 160 μg/kg/day",37 days
same,Body wt. chenge.,"B16 melanoma; B16, 160 μg/kg/day i. p. days 1-9",-1.3 g
same,T/C (treated/control),"B16 melanoma; B16, 160 μg/kg/day",218%
same,Median Tumor Vol.,Lewis lung carcinoma; 40 μg/kg/day,473 mm^3
same,"N. P. (Day 14), number of nonpalpable tumors",Lewis lung carcinoma; 40 μg/kg/day,0
same,Body Wt. Chenge.,Lewis lung carcinoma; 40 μg/kg/day i. p. days 1-9,-2.6 g
same,Median Tumor Vol.,Lewis lung carcinoma; 80 μg/kg/day,163 mm^3
same,"N. P. (Day 14), number of nonpalpable tumors",Lewis lung carcinoma; 80 μg/kg/day,2
same,Median Tumor Vol.,Lewis lung carcinoma; 160 μg/kg/day,0 mm^3
same,"N. P. (Day 14), number of nonpalpable tumors",Lewis lung carcinoma; 160 μg/kg/day,5
same,Body Wt. Chenge.,Lewis lung carcinoma; 160 μg/kg/day i. p. days 1-9,-3.7 g
same,IC50,L1210 cells,0.2 ng/mL
same,cytotoxic activity against L1210,L1210 cells,several times more active than DB
same,Cytotoxicity L1210 IC50,[2],0.2 ng/mL
